Activity and inhibition of growth data for 13 molecules are collected here from ChEMBL document CHEMBL2412979, “2-(2-Methylfuran-3-carboxamido)-3-phenylpropanoic acid, a potential CYP26A1 inhibitor to enhance all-trans retinoic acid-induced leukemia cell differentiation based on virtual screening and biological evaluation” (Bioorg Med Chem, 2013).

Molecules are shown by their SMILES.

Data set [1] deals with NB-4. Kind of data set: Potentiation of ATRA-induced human NB4 cell differentiation at 10 uM after 96 hrs by nitroblue tetrazolium assay (reference value: 29.44 +/- 2.03%). The format is functional.
The test system of data set [2] is NB-4. Kind of data set: Induction of human NB4 cell differentiation at 0.5 to 10 uM after 96 hrs by nitroblue tetrazolium assay relative to control. The format is functional.
Data set [3] deals with NB-4. Briefly: Potentiation of ATRA-induced human NB4 cell growth inhibition at 10 uM after 96 hrs by hemocytometry (reference value: 32.70 +/- 2.25%). To be noted: NB-4, 96 h, read-out: GI. The format is functional.
Data set [4] relates to NB-4. Briefly: Potentiation of ATRA-induced human NB4 cell differentiation at 5 uM after 96 hrs by nitroblue tetrazolium assay (reference value: 29.44 +/- 2.03%). The format is functional.
The test system of data set [5] is NB-4. Kind of data set: Cytotoxicity against human NB4 cells assessed as growth inhibition at 5 uM after 96 hrs by hemocytometry relative to control. It is filed as functional. To be noted: NB-4, 96 h, read-out: GI.
Data set [6] relates to NB-4. Kind of data set: Cytotoxicity against human NB4 cells assessed as growth inhibition at 10 uM after 96 hrs by hemocytometry relative to control. It is filed as functional. To be noted: NB-4, 96 h, read-out: GI.
Data set [7] relates to NB-4. Kind of data set: Potentiation of ATRA-induced human NB4 cell growth inhibition at 5 uM after 96 hrs by hemocytometry (reference value: 32.70 +/- 2.25%). Conditions: NB-4, 96 h, read-out: GI. The format is functional.
The test system of data set [8] is NB-4. Kind of data set: Potentiation of ATRA-induced human NB4 cell growth inhibition at 1 uM after 96 hrs by hemocytometry (reference value: 32.42 +/- 3.98%). The format is functional. To be noted: NB-4, 96 h, read-out: GI.
Data set [9] concerns NB-4. Briefly: Potentiation of ATRA-induced human NB4 cell growth inhibition at 0.5 uM after 96 hrs by hemocytometry (reference value: 32.42 +/- 3.98%). To be noted: NB-4, 96 h, read-out: GI. The format is functional.
Data set [10] relates to NB-4. Kind of data set: Cytotoxicity against human NB4 cells assessed as growth inhibition at 1 uM after 96 hrs by hemocytometry relative to control. The format is functional. To be noted: NB-4, 96 h, read-out: GI.
Data set [11] concerns NB-4. Briefly: Cytotoxicity against human NB4 cells assessed as growth inhibition at 0.5 uM after 96 hrs by hemocytometry relative to control. Conditions: NB-4, 96 h, read-out: GI. The format is functional.
Data set [12] concerns NB-4. Briefly: Potentiation of ATRA-induced human NB4 cell differentiation at 1 uM after 96 hrs by nitroblue tetrazolium assay (reference value: 29.93 +/- 0.73%). The format is functional.
For data set [13], the system named is NB-4. Kind of data set: Potentiation of ATRA-induced human NB4 cell differentiation at 0.5 uM after 96 hrs by nitroblue tetrazolium assay (reference value: 29.93 +/- 0.73%). The format is functional.
The target in data set [14] is T1, Cytochrome P450 26A1 (Homo sapiens, UniProt O43174).
T1 sequence (O43174 whole entry): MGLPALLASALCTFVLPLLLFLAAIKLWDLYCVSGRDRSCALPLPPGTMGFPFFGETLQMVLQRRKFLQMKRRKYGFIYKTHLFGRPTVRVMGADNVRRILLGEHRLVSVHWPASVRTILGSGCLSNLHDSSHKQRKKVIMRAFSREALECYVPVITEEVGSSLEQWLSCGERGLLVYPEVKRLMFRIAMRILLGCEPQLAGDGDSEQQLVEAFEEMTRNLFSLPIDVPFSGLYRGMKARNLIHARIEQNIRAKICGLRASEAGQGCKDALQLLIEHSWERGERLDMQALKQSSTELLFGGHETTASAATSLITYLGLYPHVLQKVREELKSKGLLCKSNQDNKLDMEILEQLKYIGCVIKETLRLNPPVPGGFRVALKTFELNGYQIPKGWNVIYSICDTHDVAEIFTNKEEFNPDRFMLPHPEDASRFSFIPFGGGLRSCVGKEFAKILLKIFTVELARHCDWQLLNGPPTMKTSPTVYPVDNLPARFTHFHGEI
Kind of data set: Inhibition of CYP26A1 in human NB4 cells assessed as ATRA level in medium at 5 uM after 12 hrs by LC-MS/MS analysis (reference value: 27.05 +/- 1.34 ng/ml). It is filed as cell-based. To be noted: nb-4, 12 h.

Consider `Cc1ccc(OCc2nc(-c3cccnc3)no2)c(Br)c1`, for which the Activity worked out at 28.85% in data set [1], 0% in [2] and 25.37% in data set [4]. In addition, the results for the inhibition of growth at 10 µM in data set [3] and in data set [6] were 42.9% and 23.5%, respectively. Also, the figures for the inhibition of growth at 5 µM in [5] and in data set [7] were 18.2% and 39.8%, respectively.

Take `CC1=CC(=O)OC2C=C(OCCOc3ccc(C(C)(C)C)cc3)C=CC12` (stereo not drawn): the inhibition of growth at 1 µM came out at 43% in data set [8] and 13.6% in data set [10]. The inhibition of growth at 0.5 µM in data set [9] worked out at 46.1%; in data set [11], 14.4%. Further, the Activity in [1] stood at 42.39%; in [2] it was 0%; in data set [12], 38.42%; in [13] it was 35.72%; in [4], 39.97%. In addition, the inhibition of growth at 10 µM in [3] came out at 48.3%; in data set [6], 6.78%. The inhibition of growth at 5 µM in data set [5] was determined as 7.78%; in data set [7], 43.5%.

In the case of `O=C(Nc1ccncc1)c1cc(-c2ccc(Br)cc2)nc2ccccc12`, the inhibition of growth at 1 µM in [8] is 48.7%; in data set [10] it was 24.7%. For the same molecule, the inhibition of growth at 0.5 µM in data set [9] worked out at 54.3%; in [11], 20.2%. In addition, the Activity is given as 38.52% in data set [1]; 0% in [2]; 35.7% in [12]; 36.53% in data set [13]; 33.68% in data set [4]. Further, the inhibition of growth at 10 µM is 59.4% in data set [3] and 52.9% in [6]. Besides, the figures for the inhibition of growth at 5 µM in data set [5] and in data set [7] were 37.9% and 63.1%, respectively.

Take `O=C(O)c1ccc(COc2ccc(/C=C3\SC(=O)N(c4cccc(Cl)c4)C3=O)cc2)cc1`: the inhibition of growth at 1 µM in data set [8] was determined as 53.7%; in data set [10], 18%. Besides, the inhibition of growth at 0.5 µM in data set [9] came to 44.1%; in data set [11] it was 18.6%. Moreover, the Activity came out at 41.85% in [1]; 0% in data set [2]; 35.4% in data set [12]; 31.47% in [13]; 38.42% in [4]. Besides, the inhibition of growth at 10 µM was found to be 41.1% in [3] and 9.07% in [6]. In addition, the inhibition of growth at 5 µM amounted to 11% in data set [5] and 43.8% in data set [7].

In the case of `O=C(CCN1C(=O)c2ccccc2C1=O)NCc1ccncc1`, the inhibition of growth at 1 µM in data set [8] was 48.5%; in [10] it was 16.5%. Further, the inhibition of growth at 0.5 µM turned out to be 50.8% in data set [9] and 14.2% in data set [11]. Besides, the Activity in data set [1] turned out to be 41.21%; in [2], 0%; in data set [12], 37.16%; in [13], 35.05%; in data set [4] it was 41.55%. Besides, the results for the inhibition of growth at 10 µM in [3] and in [6] were 49.7% and 12.4%, respectively. For the same molecule, the inhibition of growth at 5 µM is 14.6% in data set [5] and 50.9% in data set [7].

With `CCOc1ccc(NS(=O)(=O)c2ccc(Br)cc2)cc1`, the figures for the Activity in [1], in [2] and in data set [4] were 30.3%, 0% and 26.83%, respectively. Further, the inhibition of growth at 10 µM turned out to be 48.4% in data set [3] and 20.8% in [6]. The inhibition of growth at 5 µM in data set [5] turned out to be 17.1%; in data set [7], 44.1%.

In the case of `Cc1cc(O)nc(SCC(=O)c2ccc(O)c(O)c2)n1`, the inhibition of growth at 1 µM in data set [8] came to 51.7%; in data set [10], 18.7%. For the same molecule, the inhibition of growth at 0.5 µM is 50.3% in [9] and 19.3% in data set [11]. In addition, the Activity is listed as 39.43% in [1]; 0% in [2]; 32.57% in [12]; 33.19% in data set [13]; 41.32% in data set [4]. Moreover, the figures for the inhibition of growth at 10 µM in data set [3] and in data set [6] were 53.5% and 12.8%, respectively. Further, the inhibition of growth at 5 µM in data set [5] came to 12.2%; in data set [7], 53.4%.

As to `Cc1cccc(-c2nc3cc(/N=C/c4c(C)cc(O)cc4O)ccc3o2)c1`, the inhibition of growth at 1 µM worked out at 48.5% in data set [8] and 22.6% in [10]. In addition, the values for the inhibition of growth at 0.5 µM in data set [9] and in data set [11] were 50.1% and 25.8%, respectively. Also, the Activity in data set [1] is listed as 45.38%; in data set [2], 0%; in [12], 27.65%; in data set [13] it was 29.21%; in data set [4], 36.43%. In addition, the inhibition of growth at 10 µM stood at 79% in data set [3] and 48.5% in [6]. The inhibition of growth at 5 µM in data set [5] is 37.1%; in data set [7] it was 64.3%.

Consider `Clc1cccc(C(c2ccc3[nH]cnc3c2)n2ccnc2)c1` (stereo not drawn) [LIAROZOLE], for which the inhibition of growth at 1 µM in data set [8] was 46%; in data set [10] it was 23.1%. Moreover, the inhibition of growth at 0.5 µM in data set [9] was found to be 49.6%; in data set [11], 14.5%. In addition, the Activity amounted to 39.78 ng/mL in data set [14]; 34.9% in data set [1]; 0% in [2]; 38.22% in data set [12]; 42.86% in data set [13]; 33.53% in data set [4]. Also, the inhibition of growth at 10 µM was determined as 56.3% in data set [3] and 40.9% in [6]. The inhibition of growth at 5 µM in data set [5] is 32.7%; in [7], 55.3%.

Regarding `O=C(CCN1C(=O)c2ccccc2C1=O)Nc1cc(Cl)ccc1C(=O)O`, the inhibition of growth at 1 µM in data set [8] came out at 38.6%; in data set [10], 19.2%. The inhibition of growth at 0.5 µM is 47.9% in data set [9] and 13.8% in data set [11]. Moreover, the Activity stood at 36.7% in [1]; 0% in data set [2]; 36.18% in [12]; 35.1% in data set [13]; 39.6% in [4]. In addition, the inhibition of growth at 10 µM in [3] amounted to 39.1%; in [6], 9.31%. Moreover, the values for the inhibition of growth at 5 µM in data set [5] and in data set [7] were 3.68% and 41.3%, respectively.

Turning to `CC(=O)Nc1ccc(C(=O)Nc2ccc(OCC(=O)O)cc2)cc1`, the results for the inhibition of growth at 1 µM in data set [8] and in [10] were 45.1% and 8.83%, respectively. The inhibition of growth at 0.5 µM worked out at 45% in data set [9] and 7.8% in [11]. Moreover, the Activity was found to be 38.97% in data set [1]; 0% in [2]; 34.74% in data set [12]; 37.62% in [13]; 38.29% in data set [4]. The inhibition of growth at 10 µM in [3] was determined as 48.8%; in data set [6], 14.2%. The inhibition of growth at 5 µM worked out at 17.9% in [5] and 45.8% in data set [7].

Take `Cc1oc(C(C)(C)C)cc1C(=O)NC(Cc1ccccc1)C(=O)O` (stereo not drawn): the inhibition of growth at 1 µM turned out to be 47.1% in data set [8] and 17.8% in data set [10]. Also, the inhibition of growth at 0.5 µM in data set [9] turned out to be 50.6%; in data set [11], 12.8%. In addition, the Activity in [14] was 33.9 ng/mL; in [1], 42.64%; in [2], 0%; in data set [12], 38%; in data set [13] it was 39.58%; in data set [4], 45.16%. In addition, the inhibition of growth at 10 µM in [3] was found to be 47.1%; in data set [6] it was 8.05%. Moreover, the results for the inhibition of growth at 5 µM in data set [5] and in [7] were 7.7% and 40.2%, respectively.

With `COc1ccc(/C=C/C(=O)Nc2sc3c(c2C(=O)O)CCC3)cc1`, the Activity in [1] turned out to be 31.42%; in data set [2], 0%; in [4], 30.05%. The inhibition of growth at 10 µM in [3] was found to be 34.9%; in data set [6] it was 1.22%. Further, the inhibition of growth at 5 µM came out at 0.49% in data set [5] and 31.5% in [7].
